In PubChem BioAssay AID2840 (Southern Research Specialized Biocontainment Screening …, 2010) one finds IC50 and inhibition data, which are given here for 56 compounds.

Active and inactive are the calls of the source. No rule for the calls is given here.

Assay [1] concerns Salmonella typhi GFP reporter counter-screen, fluorescence, 4 h. In words: Salmonella typhi GFP reporter counter screen, fluorescence, PhoP regulon inhibitors, confirmatory, 4 h (AID 2840).
Test in assay [2]: as above
To be noted: Salmonella typhi GFP reporter counter-screen, fluorescence, 4 h; at 150 µM (top of the series).

As for `S=C(NCc1ccc(Cl)cc1)Nc1ccncc1`, the IC50 in assay [1] was under 150 nM. For the compound `O=C(Nc1ccccc1)N1CCCN(Cc2ccccc2F)C1`, in assay [2], the inhibition is 14.4% (inactive). As to `O=C(Nc1nnc(-c2cccs2)o1)c1cccc(C(F)(F)F)c1`, in assay [1], the half-maximal inhibitory concentration (IC50) was under 150 nM.

Take `CCn1cc(C(=O)O)c(=O)c2cc(F)c(N3CCN(C(=S)NC(=O)c4ccccc4F)CC3)cc21`: the IC50 in assay [1] was under 150 nM. On the same count and under the same terms, the figure for `CN(C)CCCN(C(=O)CCc1ccccc1)c1nc2ccc(Cl)cc2s1` is under 150 nM.

In the case of `COc1cccc(NC(=S)NCc2ccc(Cl)cc2)c1`, the inhibition in assay [2] was 2.87% (inactive).

Take `O=C1C2=C(Nc3ccccc3SC2c2ccccc2Br)c2ccccc21` (stereo unspecified): the inhibition in assay [2] is 9.22% (inactive).

Regarding `Cc1ccc(NC(=S)NCc2ccc(Cl)cc2)cc1`, the inhibition in assay [2] was 1.23% (inactive).

Consider `O=C1C2=C(Nc3ccccc3SC2c2ccccc2C(F)(F)F)c2ccccc21` (stereo unspecified), for which, in assay [2], the inhibition was 7.85% (inactive). As to `O=C(O)c1cn(-c2ccc(F)cc2)c2cc(Cl)c(F)cc2c1=O`, the IC50 in assay [1] was under 150 nM. Regarding `O=C1C2=C(Nc3ccccc3SC2c2ccccc2Cl)c2ccccc21` (stereo unspecified), the inhibition in assay [2] was 24.5% (inactive). Same read-out and setting: the figure for `O=C1C2=C(Nc3ccccc3SC2c2ccsc2)c2ccccc21` (stereo unspecified) is 13.1% (inactive). On to `CCCCn1c(NS(=O)(=O)c2ccc(C)cc2)c(S(=O)(=O)c2ccccc2)c2nc3ccccc3nc21`, for which, in assay [1], the IC50 is under 150 nM. `S=C(NCc1ccccc1Cl)Nc1ccncc1`: the inhibition in assay [2] was 6.49% (inactive).

For the compound `CCCCCNC(=O)c1cn(CC)c2cc(N3CCN(C)CC3)c(F)cc2c1=O`, in assay [1], the IC50 is under 150 nM. Regarding `O=[N+]([O-])c1ccc(CNC2CCCc3ccccc32)cc1` (stereo unspecified), in assay [1], the IC50 is under 150 nM. Still for that read-out and setting: the figure for `CN1CCN(C2=Cc3cc(Cl)ccc3Sc3cc(F)ccc32)CC1` is under 150 nM. As for `Fc1ccccc1NC(=S)NCc1ccc(Cl)cc1`, the inhibition in assay [2] is 1.61% (inactive). Regarding `CN1CCc2nc(SCC(=O)Nc3cccc(F)c3)c(C#N)c(-c3cccs3)c2C1`, the half-inhibitory concentration (IC50) in assay [1] is under 150 nM. For `S=C(NCc1ccc(Cl)cc1)Nc1ccc(Cl)cc1`, the inhibition in assay [2] was 0.06% (inactive). With `CSc1nc2cc(Oc3cccc(Cl)c3Cl)c(Cl)cc2[nH]1`, the IC50 in assay [1] was under 150 nM. With `COc1ccccc1NC(=O)N1CCCN(Cc2ccccc2F)C1`, the inhibition in assay [2] was 21% (inactive).

Consider `O=C1c2ccccc2C2=Nc3ccccc3SC(c3ccccc3F)C12` (stereo unspecified), for which the IC50 in assay [1] is under 150 nM. In the case of `CCn1cc(C(=O)O)c(=O)c2cc(F)c(N3CCN(C(=S)Nc4ccccc4Cl)CC3)cc21`, the inhibition in assay [2] was 17.6% (inactive). With `COc1ccc(NC(=O)c2cc(Br)c(Br)s2)cn1`, the IC50 in assay [1] was under 150 nM.

For the compound `N#C/C(=C\c1ccc[nH]1)C(=O)NC1CC1`, the IC50 in assay [1] is under 150 nM.

Turning to `O=C1C2=C(Nc3ccccc3SC2c2ccc(C(F)(F)F)cc2)c2ccccc21` (stereo unspecified), in assay [1], the IC50 is 107000 nM.

`O=C1C2=C(Nc3ccccc3SC2c2cccc(Cl)c2)c2ccccc21` (stereo unspecified): the inhibition in assay [2] is 14.9% (inactive). Same read-out and setting: for `CCn1cc(C(=O)O)c(=O)c2cc(F)c(N3CCN(C(=S)NCc4ccccc4)CC3)cc21` the value was 13.2% (inactive). In the case of `Cc1ccc(CN2CCCN(C(=O)Nc3ccc(Cl)cc3)C2)cc1`, the IC50 in assay [1] was 99800 nM. Consider `CCn1cc(C(=O)O)c(=O)c2cc(F)c(N3CCN(C(=S)NC)CC3)cc21`, for which, in assay [2], the inhibition was -11.9% (inactive).

In the case of `O=C(Nc1ccccc1Cl)N1CCCN(Cc2ccccc2F)C1`, the inhibition in assay [2] was 0.77% (inactive). Regarding `S=C(NCc1ccc(Cl)cc1)Nc1cccnc1`, the inhibition in assay [2] was -15.5% (inactive). Take `Cc1ccc(Nc2cc(C)c3c(O)cccc3n2)cc1C`: in assay [1], the IC50 is under 150 nM. In the case of `O=c1c2ccccc2[nH]c2ccc(F)cc12`, in assay [1], the 50% inhibitory concentration (IC50) is under 150 nM. In the case of `Cc1cccc(NC(=S)NCc2ccc(Cl)cc2)c1`, in assay [2], the inhibition was 3.06% (inactive). Consider `CCn1cc(C(=O)O)c(=O)c2cc(F)c(N3CCN(C(=S)Nc4ccccc4C)CC3)cc21`, for which the inhibition in assay [2] is 22% (inactive).

`CCn1cc(C(=O)O)c(=O)c2cc(F)c(N3CCN(C(=S)Nc4ccc(Cl)cc4)CC3)cc21`: the inhibition in assay [2] is 39.1% (inactive). As for `C1=C(CCNc2ncnc3c2[nH]c2ccccc23)CCCC1`, the IC50 in assay [1] was under 150 nM. For the compound `O=C1C2=C(Nc3ccccc3SC2c2ccc(I)cc2)c2ccccc21` (stereo unspecified), in assay [2], the inhibition was 37.4% (inactive). In the case of `S=C(NCc1ccc(Cl)cc1)Nc1ccc(Br)cc1`, in assay [2], the inhibition is 1.55% (inactive). For the compound `O=C(Nc1cccnc1)c1cc(Br)c(Br)s1`, the IC50 in assay [1] was under 150 nM.

With `CCn1cc(C(=O)O)c(=O)c2cc(F)c(N3CCN(C(=S)Nc4ccccc4C(F)(F)F)CC3)cc21`, the IC50 in assay [1] was 104000 nM. On the same count and under the same terms, for `O=S(=O)(Nc1c(S(=O)(=O)c2ccccc2)c2nc3ccccc3nc2n1C1CCCCC1)c1ccccc1` the value was under 150 nM. As to `COc1ccc(NC(=S)NCc2ccc(Cl)cc2)cc1`, the inhibition in assay [2] was 8.1% (inactive). In the case of `CCn1cc(C(=O)O)c(=O)c2cc(F)c(N3CCN(C(=S)NC(=O)c4ccccc4Cl)CC3)cc21`, the 50% inhibitory concentration (IC50) in assay [1] is under 150 nM. As for `S=C(NCc1ccc(Cl)cc1)Nc1cccc(Cl)c1`, the inhibition in assay [2] was 21.5% (inactive). With `O=C1C2=C(Nc3ccccc3SC2c2ccco2)c2ccccc21` (stereo unspecified), the IC50 in assay [1] was under 150 nM. Same read-out and setting: for `COc1c(N2CCN(C(=S)NCc3ccccc3)C(C)C2)c(F)cc2c(=O)c(C(=O)O)cn(C3CC3)c12` (stereo unspecified) the value was under 150 nM. Turning to `O=C(NCc1ccccc1)N1CCCN(Cc2ccccc2F)C1`, the inhibition in assay [2] is -5% (inactive). Consider `COc1ccc(CNC(=S)Nc2ccncc2)cc1`, for which the inhibition in assay [2] was 15.2% (inactive). With `CCCCn1c(NS(=O)(=O)c2ccccc2)c(S(=O)(=O)c2ccc(C)cc2)c2nc3ccccc3nc21`, the IC50 in assay [1] is under 150 nM. The same measure, in the same setting: the figure for `COc1ccccc1Nc1nc(NCc2ccco2)c2ccccc2n1` is under 150 nM; for `O=C(Nc1ccc(Cl)cc1)N1CCCN(Cc2ccccc2F)C1` it is under 150 nM. `COc1cccc(C2Sc3ccccc3NC3=C2C(=O)c2ccccc23)c1` (stereo unspecified): the inhibition in assay [2] is 14.1% (inactive). On the same count and under the same terms, for `CCOc1ccc(NC(=S)N2CCN(c3cc4c(cc3F)c(=O)c(C(=O)O)cn4CC)CC2)cc1` the value was 15.7% (inactive).
